Test results taken from patent publication US20180368410A1, “MICROBIOCIDAL OXADIAZOLE DERIVATIVES” (SYNGENTA PARTICIPATIONS AG, priority 2015, published 2018).

Legend:
[1] = tested on: Puccinia recondita f. Sp. Tritici; experiment: Puccinia recondita f. sp. tritici / wheat / leaf disc preventative (brown rust); type: in vivo, Puccinia recondita f. sp. tritici on wheat cv. Kanzler; conditions: foliar, 200 ppm in the applied formulation, inoculated 1 day after application, assessed 7 to 9 days after application, vs untreated control leaf disks, read-out: disease control
Description: Leaf disks or leaf segments of various plant species are cut from plants grown in a greenhouse. The cut leaf disks or segments are placed in multiwell plates (24-well format) onto water agar. The leaf disks are sprayed with a test solution before (preventative) or after (curative) inoculation. Compounds to be tested are prepared as DMSO solutions (max. 10 mg/ml) which are diluted to the appropriate concentration with 0.025% Tween20 just before spraying. The inoculated leaf disks or segments are incubated under defined conditions (temperature, relative humidity, light, etc.) according to the respective test system. A single evaluation of disease level is carried out 3 to 14 days after inoculation, depending on the pathosystem. Percent disease control relative to the untreated check leaf disks or segments is then calculated. Wheat leaf segments cv. Kanzler were placed on agar in multiwell plates (24-well format) and sprayed with the formulated test compound diluted in water. The leaf disks were inoculated with a spore suspension of the fungus 1 day after application. The inoculated leaf segments were incubated at 19′C and 75% relative humidity (rh) under a light regime of 12 hours light/12 hours darkness in a climate cabinet and the activity of a compound was assessed as percent disease control compared to untreated when an appropriate level of disease damage appears in untreated check leaf segments (7 to 9 days after application). The following compounds at 200 ppm in the applied formulation give at least 80% disease control in this test when compared to untreated control leaf disks under the same conditions, which show extensive disease development.

[2] = tested on: Puccinia recondita f. Sp. Triticil; experiment: Puccinia recondita f. sp. tritici / wheat / leaf disc curative (brown rust); type: in vivo, Puccinia recondita f. sp. tritici on wheat cv. Kanzler; conditions: foliar, 200 ppm in the applied formulation, applied 1 day after inoculation, assessed 6 to 8 days after application, vs untreated control leaf disks, read-out: disease control
Description: (§1) Leaf disks or leaf segments of various plant species are cut from plants grown in a greenhouse. The cut leaf disks or segments are placed in multiwell plates (24-well format) onto water agar. The leaf disks are sprayed with a test solution before (preventative) or after (curative) inoculation. Compounds to be tested are prepared as DMSO solutions (max. 10 mg/ml) which are diluted to the appropriate concentration with 0.025% Tween20 just before spraying. The inoculated leaf disks or segments are incubated under defined conditions (temperature, relative humidity, light, etc.) according to the respective test system. A single evaluation of disease level is carried out 3 to 14 days after inoculation, depending on the pathosystem. Percent disease control relative to the untreated check leaf disks or segments is then calculated.
Wheat leaf segments cv. Kanzler are placed on agar in multiwell plates (24-well format). The leaf segments are then inoculated with a spore suspension of the fungus. Plates were stored in darkness at 19° C. and 75% relative humidity. The formulated test compound diluted in water was applied 1 day after inoculation. The leaf segments were incubated at 19° C. and 75% relative humidity under a light regime of 12 hours light/12 hours darkness in a climate cabinet and the activity of a compound was assessed as percent disease control compared to untreated when an appropriate level of disease damage appears in untreated check leaf segments (6 to 8 days after application).
(§2) The following compounds at 200 ppm in the applied formulation give at least 80% disease control in this test when compared to untreated control leaf disks under the same conditions, which show extensive disease development.

[3] = tested on: Phakopsora pachyrhizi; experiment: Phakopsora pachyrhizi / soybean / leaf disc preventative (Asian soybean rust); type: in vivo, Phakopsora pachyrhizi on soybean; conditions: foliar, 200 ppm in the applied formulation, inoculated one day after application, assessed 12 to 14 days after application, vs untreated control leaf disks, read-out: disease control
Description: as §1
Soybean leaf disks are placed on water agar in multiwell plates (24-well format) and sprayed with the formulated test compound diluted in water. One day after application leaf discs are inoculated by spraying a spore suspension on the lower leaf surface. After an incubation period in a climate cabinet of 24-36 hours in darkness at 20° C. and 75% rh leaf disc are kept at 20° C. with 12 h light/day and 75% rh. The activity of a compound is assessed as percent disease control compared to untreated when an appropriate level of disease damage appears in untreated check leaf disks (12 to 14 days after application).
as §2

[4] = tested on: Glomerella Lacenarium (Colletotrichum lacenarium); experiment: Glomerella lagenarium (Colletotrichum lagenarium) liquid culture / cucumber / preventative (anthracnose); type: cell-based; conditions: 20 ppm in the applied formulation, liquid culture in PDB, 24° C., inhibition of growth measured photometrically 3 to 4 days after application, vs untreated control, read-out: disease control
Description: Mycelia fragments or conidia suspensions of a fungus prepared either freshly from liquid cultures of the fungus or from cryogenic storage, are directly mixed into nutrient broth. DMSO solutions of the test compound (max. 10 mg/ml) are diluted with 0.025% Tween20 by a factor of 50 and 10 μl of this solution is pipetted into a microtiter plate (96-well format). The nutrient broth containing the fungal spores/mycelia fragments is then added to give an end concentration of the tested compound. The test plates are incubated in the dark at 24° C. and 96% relative humidity. The inhibition of fungal growth is determined photometrically after 2 to 7 days, depending on the pathosystem, and percent antifungal activity relative to the untreated check is calculated.
Conidia of the fungus from cryogenic storage are directly mixed into nutrient broth (PDB—potato dextrose broth). After placing a (DMSO) solution of test compound into a microtiter plate (96-well format), the nutrient broth containing the fungal spores is added. The test plates are incubated at 24° C. and the inhibition of growth is measured photometrically 3 to 4 days after application.
The following compounds at 20 ppm in the applied formulation give at least 80% disease control in this test when compared to untreated control under the same conditions, which show extensive disease development.

O=C(NCc1ccc(-c2noc(C(F)(F)F)n2)c(F)c1F)C1CCC1 [Compound 1.75, N-[[2,3-difluoro-4-[5-(trifluoromethyl)-1,2,4-oxadiazol-3-yl]phenyl]methyl] cyclobutanecarboxamide]
≥ 80%: pest or weed control at 200 ppm [1] | pest or weed control at 200 ppm [2] | pest or weed control at 200 ppm [3] | inhibition of growth at 20 ppm [4]

CC1(C(=O)NCc2ccc(-c3noc(C(F)(F)F)n3)c(F)c2)COC1 [Compound 1.69, N-[[3-fluoro-4-[5-(trifluoromethyl)-1,2,4-oxadiazol-3-yl]phenyl]methyl]-3-methyl-oxetane-3-carboxamide]
≥ 80%: pest or weed control at 200 ppm [1] | pest or weed control at 200 ppm [2] | pest or weed control at 200 ppm [3] | inhibition of growth at 20 ppm [4]

O=C(CC1CCCC1)NCc1ccc(-c2noc(C(F)(F)F)n2)cc1 [Compound 1.7, 2-cyclopentyl-N-[[4-[5-(trifluoromethyl)-1,2,4-oxadiazol-3-yl]phenyl]methyl]acetamide]
≥ 80%: pest or weed control at 200 ppm [1] | pest or weed control at 200 ppm [2] | pest or weed control at 200 ppm [3] | inhibition of growth at 20 ppm [4]

O=C(NCc1ccc(-c2noc(C(F)(F)F)n2)cc1F)C1CC1(F)F (stereo not drawn) [Compound 1.61, 2,2-difluoro-N-[[2-fluoro-4-[5-(trifluoromethyl)-1,2,4-oxadiazol-3-yl]phenyl]methyl] cyclopropanecarboxamide]
≥ 80%: pest or weed control at 200 ppm [1] | pest or weed control at 200 ppm [2] | pest or weed control at 200 ppm [3] | inhibition of growth at 20 ppm [4]

CC1CC1C(=O)NCc1ccc(-c2noc(C(F)(F)F)n2)c(F)c1 (stereo not drawn) [Compound 1.64, N-[[3-fluoro-4-[5-(trifluoromethyl)-1,2,4-oxadiazol-3-yl]phenyl]methyl]-2-methyl-cyclopropanecarboxamide]
≥ 80%: pest or weed control at 200 ppm [1] | pest or weed control at 200 ppm [2] | pest or weed control at 200 ppm [3] | inhibition of growth at 20 ppm [4]

O=C(NCCc1ccc(-c2noc(C(F)(F)F)n2)cc1)C1CCOC1 (stereo not drawn) [Compound 1.100, N-[2-[4-[5-(trifluoromethyl)-1,2,4-oxadiazol-3-yl]phenyl]ethyl] tetrahydrofuran-3-carboxamide]
≥ 80%: pest or weed control at 200 ppm [1] | pest or weed control at 200 ppm [2] | pest or weed control at 200 ppm [3] | inhibition of growth at 20 ppm [4]

CC1(C(=O)NCc2ccc(-c3noc(C(F)(F)F)n3)cc2F)CC1 [Compound 1.67, N-[[2-fluoro-4-[5-(trifluoromethyl)-1,2,4-oxadiazol-3-yl]phenyl]methyl]-1-methyl-cyclopropanecarboxamide]
≥ 80%: pest or weed control at 200 ppm [1] | pest or weed control at 200 ppm [2] | pest or weed control at 200 ppm [3] | inhibition of growth at 20 ppm [4]

O=C(CC1CC1)NCc1ccc(-c2noc(C(F)(F)F)n2)c(F)c1F [Compound 1.73, 2-cyclopropyl-N-[[2,3-difluoro-4-[5-(trifluoromethyl)-1,2,4-oxadiazol-3-yl]phenyl]methyl]acetamide]
≥ 80%: pest or weed control at 200 ppm [1] | pest or weed control at 200 ppm [2] | pest or weed control at 200 ppm [3] | inhibition of growth at 20 ppm [4]

CC1(C(=O)NCc2ccc(-c3noc(C(F)(F)F)n3)cc2)CCCCC1 [Compound 1.21, 1-methyl-N-[[4-[5-(trifluoromethyl)-1,2,4-oxadiazol-3-yl]phenyl]methyl] cyclohexanecarboxamide]
≥ 80%: pest or weed control at 200 ppm [1] | pest or weed control at 200 ppm [2] | pest or weed control at 200 ppm [3] | inhibition of growth at 20 ppm [4]

O=C(NCc1ccc(-c2noc(C(F)(F)F)n2)c(F)c1)C1CCC1 [Compound 1.93, N-[[3-fluoro-4-[5-(trifluoromethyl)-1,2,4-oxadiazol-3-yl]phenyl]methyl] cyclobutanecarboxamide]
≥ 80%: pest or weed control at 200 ppm [1] | pest or weed control at 200 ppm [2] | pest or weed control at 200 ppm [3] | inhibition of growth at 20 ppm [4]

O=C(NCc1ccc(-c2noc(C(F)(F)F)n2)cc1)C1CCC1 [Compound 1.22, N-[[4-[5-(trifluoromethyl)-1,2,4-oxadiazol-3-yl]phenyl]methyl] cyclobutanecarboxamide]
≥ 80%: pest or weed control at 200 ppm [1] | pest or weed control at 200 ppm [2] | pest or weed control at 200 ppm [3] | inhibition of growth at 20 ppm [4]

O=C(NCCc1ccc(-c2noc(C(F)(F)F)n2)cc1)C1CCC1 [Compound 1.101, N-[2-[4-[5-(trifluoromethyl)-1,2,4-oxadiazol-3-yl]phenyl]ethyl] cyclobutanecarboxamide]
≥ 80%: pest or weed control at 200 ppm [1] | pest or weed control at 200 ppm [2] | pest or weed control at 200 ppm [3] | inhibition of growth at 20 ppm [4]

CC1CC1C(=O)NCc1ccc(-c2noc(C(F)(F)F)n2)cc1F (stereo not drawn) [Compound 1.66, N-[[2-fluoro-4-[5-(trifluoromethyl)-1,2,4-oxadiazol-3-yl]phenyl]methyl]-2-methyl-cyclopropanecarboxamide]
≥ 80%: pest or weed control at 200 ppm [1] | pest or weed control at 200 ppm [2] | pest or weed control at 200 ppm [3] | inhibition of growth at 20 ppm [4]

O=C(CC1CC1)NCc1ccc(-c2noc(C(F)(F)F)n2)cc1F [Compound 1.62, 2-cyclopropyl-N-[[2-fluoro-4-[5-(trifluoromethyl)-1,2,4-oxadiazol-3-yl]phenyl]methyl] acetamide]
≥ 80%: pest or weed control at 200 ppm [1] | pest or weed control at 200 ppm [2] | pest or weed control at 200 ppm [3] | inhibition of growth at 20 ppm [4]

O=C(NCc1ccc(-c2noc(C(F)(F)F)n2)cc1F)C1CCCO1 (stereo not drawn) [Compound 1.49, N-[[2-fluoro-4-[5-(trifluoromethyl)-1,2,4-oxadiazol-3-yl]phenyl]methyl]tetrahydrofuran-2-carboxamide]
≥ 80%: pest or weed control at 200 ppm [1] | pest or weed control at 200 ppm [2] | pest or weed control at 200 ppm [3] | inhibition of growth at 20 ppm [4]
